According to ChEMBL document CHEMBL1201862, “PubChem BioAssay data set” (2004):
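Interpolation was linear, between the two tested concentrations surrounding the appropriate level; five concentrations were tested over 48 hours in 96-well plates. Abbreviation: GI50, concentration required for 50% inhibition of growth.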 Active and inactive are the calls of the source. Rule as the data show it: active = GI50 up to about 1.1 µM and inactive = higher.

Columns and labels:
Test in all cases: NCI anticancer screen, dose series, 48 h
COLO 205 = test system: COLO 205
DU-145 = test system: DU-145
HCT-15 = test system: HCT-15
HOP-92 = test system: HOP-92
HT-29 = test system: HT-29
K562 = test system: K562
LOX IMVI = test system: LOX IMVI
M14 = test system: M14
MCF7 = test system: MCF7
MOLT-4 = test system: MOLT-4
NCI-H460 = test system: NCI-H460
OVCAR-8 = test system: OVCAR-8
SF-268 = test system: SF-268
SF-295 = test system: SF-295
SK-MEL-28 = test system: SK-MEL-28
SK-OV-3 = test system: SK-OV-3
SNB-75 = test system: SNB-75
SW-620 = test system: SW-620
786-0 = test system: 786-0
OVCAR-5 = test system: OVCAR-5

Cc1ccc(S(=O)(=O)NCCSCCNS(=O)(=O)c2ccc(C)cc2)cc1
GI50 (COLO 205): > 100 µM (inactive) | GI50 (DU-145): > 100 µM (inactive) | GI50 (HCT-15): > 100 µM | GI50 (HOP-92): > 100 µM (inactive) | GI50 (HT-29): > 100 µM (inactive) | GI50 (K562): > 100 µM (inactive) | GI50 (LOX IMVI): > 100 µM (inactive) | GI50 (M14): > 100 µM (inactive) | GI50 (MCF7): > 100 µM (inactive) | GI50 (MOLT-4): > 100 µM (inactive) | GI50 (NCI-H460): > 100 µM (inactive) | GI50 (OVCAR-8): > 100 µM (inactive) | GI50 (SF-268): > 100 µM (inactive) | GI50 (SF-295): > 100 µM (inactive) | GI50 (SK-MEL-28): > 100 µM (inactive) | GI50 (SK-OV-3): > 100 µM (inactive) | GI50 (SNB-75): > 100 µM (inactive) | GI50 (SW-620): > 100 µM (inactive)

CC(C)OP(=O)(OC(C)C)c1ccc2c(c1)OCCOCCOCCOCCO2
GI50 (786-0): > 100 µM (inactive) | GI50 (COLO 205): > 100 µM (inactive) | GI50 (DU-145): > 100 µM (inactive) | GI50 (HCT-15): > 100 µM | GI50 (HT-29): > 100 µM (inactive) | GI50 (K562): > 100 µM (inactive) | GI50 (LOX IMVI): 95.7 µM (inactive) | GI50 (M14): > 100 µM (inactive) | GI50 (MCF7): > 100 µM (inactive) | GI50 (MOLT-4): > 100 µM (inactive) | GI50 (NCI-H460): > 100 µM (inactive) | GI50 (OVCAR-8): > 100 µM (inactive) | GI50 (SF-268): > 100 µM (inactive) | GI50 (SF-295): > 100 µM (inactive) | GI50 (SK-MEL-28): > 100 µM (inactive) | GI50 (SK-OV-3): > 100 µM (inactive) | GI50 (SNB-75): > 100 µM (inactive) | GI50 (SW-620): > 100 µM (inactive)

COc1ccc(/C=N/n2cnc3[nH]c(C)c(Cc4ccccc4)c3c2=N)cc1
GI50 (786-0): > 100 µM (inactive) | GI50 (COLO 205): 75.9 µM (inactive) | GI50 (DU-145): > 100 µM (inactive) | GI50 (HCT-15): > 100 µM | GI50 (HOP-92): 29.2 µM (inactive) | GI50 (HT-29): > 100 µM (inactive) | GI50 (M14): > 100 µM (inactive) | GI50 (MCF7): 39.1 µM (inactive) | GI50 (MOLT-4): 52.1 µM (inactive) | GI50 (NCI-H460): 81.7 µM (inactive) | GI50 (OVCAR-5): > 100 µM (inactive) | GI50 (OVCAR-8): 90.6 µM (inactive) | GI50 (SF-268): 72.9 µM (inactive) | GI50 (SF-295): 53.3 µM (inactive) | GI50 (SK-MEL-28): > 100 µM (inactive) | GI50 (SK-OV-3): > 100 µM (inactive) | GI50 (SNB-75): 71.9 µM (inactive) | GI50 (SW-620): 57.1 µM (inactive)

O=P(O)(O)CN1CCN(CP(=O)(O)O)CCN(CP(=O)(O)O)CCN(CP(=O)(O)O)CC1
GI50 (786-0): > 100 µM (inactive) | GI50 (COLO 205): 32.4 µM (inactive) | GI50 (DU-145): > 100 µM (inactive) | GI50 (HCT-15): 27.8 µM | GI50 (HOP-92): 38.3 µM (inactive) | GI50 (HT-29): 69 µM (inactive) | GI50 (K562): 31.8 µM (inactive) | GI50 (LOX IMVI): > 100 µM (inactive) | GI50 (M14): > 100 µM (inactive) | GI50 (MCF7): 53.6 µM (inactive) | GI50 (MOLT-4): 41.3 µM (inactive) | GI50 (NCI-H460): 29 µM (inactive) | GI50 (OVCAR-5): 73.8 µM (inactive) | GI50 (OVCAR-8): 77.6 µM (inactive) | GI50 (SF-268): > 100 µM (inactive) | GI50 (SF-295): > 100 µM (inactive) | GI50 (SNB-75): > 100 µM (inactive) | GI50 (SW-620): 42.6 µM (inactive)

CC1(C)C[C@H]2C=C(C=O)[C@]34C[C@]3(C(=O)OC4O)[C@H]2C1 (some centres not stated)
GI50 (COLO 205): 0.374 µM (active) | GI50 (DU-145): 2.22 µM (inactive) | GI50 (HCT-15): 1.43 µM | GI50 (HOP-92): 2.17 µM (inactive) | GI50 (HT-29): 1.87 µM (inactive) | GI50 (K562): 4.58 µM (inactive) | GI50 (LOX IMVI): 1.24 µM (inactive) | GI50 (M14): 1.44 µM (inactive) | GI50 (MCF7): 1.38 µM (inactive) | GI50 (MOLT-4): 1.53 µM (inactive) | GI50 (NCI-H460): 18.1 µM (inactive) | GI50 (OVCAR-5): 2.37 µM (inactive) | GI50 (OVCAR-8): 1.1 µM (active) | GI50 (SF-268): 1.61 µM (inactive) | GI50 (SF-295): 1.55 µM (inactive) | GI50 (SK-MEL-28): 2.92 µM (inactive) | GI50 (SK-OV-3): 16 µM (inactive) | GI50 (SNB-75): 1.91 µM (inactive) | GI50 (SW-620): 3.92 µM (inactive)

COc1cccc(Nc2nc(-c3cccs3)nc3ccc(Br)cc23)c1
GI50 (786-0): 33.3 µM (inactive) | GI50 (COLO 205): > 100 µM (inactive) | GI50 (DU-145): > 100 µM (inactive) | GI50 (HCT-15): > 100 µM | GI50 (HOP-92): 31.4 µM (inactive) | GI50 (HT-29): > 100 µM (inactive) | GI50 (K562): > 100 µM (inactive) | GI50 (LOX IMVI): > 100 µM (inactive) | GI50 (M14): > 100 µM (inactive) | GI50 (MCF7): 12.7 µM (inactive) | GI50 (NCI-H460): 25.6 µM (inactive) | GI50 (OVCAR-5): 95.3 µM (inactive) | GI50 (OVCAR-8): 39.2 µM (inactive) | GI50 (SF-268): 41.8 µM (inactive) | GI50 (SF-295): 36.6 µM (inactive) | GI50 (SK-OV-3): 70 µM (inactive) | GI50 (SW-620): > 100 µM (inactive)

COc1cc(OC)c2nc(C)c3c(c2c1)OCC3
GI50 (786-0): 61.1 µM (inactive) | GI50 (COLO 205): > 100 µM (inactive) | GI50 (DU-145): > 100 µM (inactive) | GI50 (HCT-15): > 100 µM | GI50 (HOP-92): 40.6 µM (inactive) | GI50 (HT-29): > 100 µM (inactive) | GI50 (K562): > 100 µM (inactive) | GI50 (LOX IMVI): > 100 µM (inactive) | GI50 (M14): > 100 µM (inactive) | GI50 (MCF7): > 100 µM (inactive) | GI50 (MOLT-4): > 100 µM (inactive) | GI50 (NCI-H460): > 100 µM (inactive) | GI50 (OVCAR-5): > 100 µM (inactive) | GI50 (OVCAR-8): > 100 µM (inactive) | GI50 (SF-268): 47.2 µM (inactive) | GI50 (SF-295): 34 µM (inactive) | GI50 (SK-MEL-28): > 100 µM (inactive) | GI50 (SNB-75): 61.2 µM (inactive) | GI50 (SW-620): > 100 µM (inactive)
